# Source: ChEMBL document CHEMBL4402605, “A Chemical Switch for Transforming a Purine Agonist for Toll-like Receptor 7 to a Clinically Relevant Antagonist” (J Med Chem, 2020)
# The source made the active and inactive calls. The rule behind the calls is not given here.
# Key:
# [1] = test system: Mus musculus; assay: Protection against imiquimod-induced C57BL/6 mouse model of psoriasis assessed as suppression of acanthosis at 15 mg/kg, po administered via gavage treated 1 day prior to imiquimod application and subsequent daily dosing for 7 consecutive days and measured post-last dose by H and E staining based histopathological analysis; assay type: functional
# [2] = Toxicity in C57BL/6 mouse assessed as change in lung microanatomy at 15 mg/kg, po administered once daily via gavage for 7 consecutive days and measured post-last dose by H and E staining based histomorphological analysis; assay type: organism-based; conditions: in vivo
# [3] = test system: Mus musculus; assay: Protection against imiquimod-induced C57BL/6 mouse model of psoriasis assessed as suppression of microabscesses at 15 mg/kg, po administered via gavage treated 1 day prior to imiquimod application and subsequent daily dosing for 7 consecutive days and measured post-last dose by H and E staining based histopathological analysis; assay type: functional
# [4] = Toxicity in C57BL/6 mouse assessed as behavioral changes at 15 mg/kg, po administered once daily via gavage for 7 consecutive days and measured post-last dose by H and E staining based histomorphological analysis; assay type: organism-based; conditions: in vivo
# [5] = in vitro; conditions: human, plasma
# Description: Stability of the compound in human plasma assessed as parent compound remaining at 25 uM measured after 2 hrs by LC-MS/MS analysis
# [6] = Apparent permeability across apical to basal side in human Caco2 cells at 10 uM measured after 120 mins by LC-MS/MS analysis; conditions: Caco-2
# [7] = test system: Mus musculus; assay: Protection against imiquimod-induced C57BL/6 mouse model of psoriasis assessed as suppression of spongiosis at 15 mg/kg, po administered via gavage treated 1 day prior to imiquimod application and subsequent daily dosing for 7 consecutive days and measured post-last dose by H and E staining based histopathological analysis; assay type: functional
# [8] = Cmax in C57BL/6 mouse at 15 mg/kg, po administered via gavage by LC-MS/MS analysis; assay type: ADME, organism-based; parameters: dose 15 mg/kg, route oral; conditions: in vivo
# [9] = test system: Mus musculus; assay: Protection against imiquimod-induced C57BL/6 mouse model of psoriasis assessed as decrease in skin thickening at 15 mg/kg, po administered via gavage treated 1 day prior to imiquimod application and subsequent daily dosing for 7 consecutive days and measured post-last dose; assay type: functional, organism-based
# [10] = AUC (0 to 24 hrs) in C57BL/6 mouse at 15 mg/kg, po administered via gavage by LC-MS/MS analysis; assay type: ADME, organism-based; parameters: time < 24 hr, dose 15 mg/kg, route oral; conditions: in vivo
# [11] = Toxicity in C57BL/6 mouse assessed as lung immune infiltration at 15 mg/kg, po administered once daily via gavage for 7 consecutive days and measured post-last dose by H and E staining based histomorphological analysis; assay type: organism-based; conditions: in vivo
# [12] = Toxicity in C57BL/6 mouse assessed as liver fatty infiltration at 15 mg/kg, po administered once daily via gavage for 7 consecutive days and measured post-last dose by H and E staining based histomorphological analysis; assay type: organism-based; conditions: in vivo
# [13] = test system: Mus musculus; assay: Protection against imiquimod-induced C57BL/6 mouse model of psoriasis assessed as reduction in ISG15 mRNA expression at 15 mg/kg, po administered via gavage treated 1 day prior to imiquimod application and subsequent daily dosing for 7 consecutive days and measured post-last dose by SYBR green dye based qPCR analysis; assay type: functional, organism-based
# [14] = Toxicity in C57BL/6 mouse assessed as mesangial proliferation at 15 mg/kg, po administered once daily via gavage for 7 consecutive days and measured post-last dose by H and E staining based histomorphological analysis; assay type: organism-based; conditions: in vivo
# [15] = test system: Mus musculus; assay: Protection against imiquimod-induced C57BL/6 mouse model of psoriasis assessed as suppression of parakeratosis at 15 mg/kg, po administered via gavage treated 1 day prior to imiquimod application and subsequent daily dosing for 7 consecutive days and measured post-last dose by H and E staining based histopathological analysis; assay type: functional
# [16] = Tmax in C57BL/6 mouse at 15 mg/kg, po administered via gavage by LC-MS/MS analysis; assay type: ADME, organism-based; conditions: in vivo
# [17] = Clearance in mouse liver microsomes at 100 uM by LC-MS/MS analysis relative to hepatic blood flow
# [18] = test system: Mus musculus; assay: Protection against imiquimod-induced C57BL/6 mouse model of psoriasis assessed as reduction in TNFalpha mRNA expression at 15 mg/kg, po administered via gavage treated 1 day prior to imiquimod application and subsequent daily dosing for 7 consecutive days and measured post-last dose by SYBR green dye based qPCR analysis; assay type: functional, organism-based
# [19] = physchem; conditions: phosphate buffer, pH 7.4
# Description: Aqueous solubility of the compound in pH 7.4 0.25 M phosphate buffer at 500 uM incubated for 18 hrs under stirred condition by UV-HPLC analysis
# [20] = Toxicity in C57BL/6 mouse assessed as change in hepatocyte survival at 15 mg/kg, po administered once daily via gavage for 7 consecutive days and measured post-last dose by H and E staining based histomorphological analysis; assay type: organism-based; conditions: in vivo
# [21] = test system: Mus musculus; assay: Protection against imiquimod-induced C57BL/6 mouse model of psoriasis assessed as reduction in IFIT1 mRNA expression at 15 mg/kg, po administered via gavage treated 1 day prior to imiquimod application and subsequent daily dosing for 7 consecutive days and measured post-last dose by SYBR green dye based qPCR analysis; assay type: functional, organism-based
# [22] = Toxicity in C57BL/6 mouse assessed as capsular space obliteration at 15 mg/kg, po administered once daily via gavage for 7 consecutive days and measured post-last dose by H and E staining based histomorphological analysis; assay type: organism-based; conditions: in vivo
# [23] = Half life in C57BL/6 mouse at 15 mg/kg, po administered via gavage by LC-MS/MS analysis; conditions: in vivo
# [24] = test system: Mus musculus; assay: Protection against imiquimod-induced C57BL/6 mouse model of psoriasis assessed as suppression of suprapapillary thinning at 15 mg/kg, po administered via gavage treated 1 day prior to imiquimod application and subsequent daily dosing for 7 consecutive days and measured post-last dose by H and E staining based histopathological analysis; assay type: functional
# [25] = Oral bioavailability in C57BL/6 mouse at 15 mg/kg administered via gavage by LC-MS/MS analysis; assay type: ADME, organism-based; conditions: in vivo
# [26] = test system: Mus musculus; assay: Protection against imiquimod-induced C57BL/6 mouse model of psoriasis assessed as suppression of pustule formation at 15 mg/kg, po administered via gavage treated 1 day prior to imiquimod application and subsequent daily dosing for 7 consecutive days and measured post-last dose by H and E staining based histopathological analysis; assay type: functional
smiles,measurement,setting,value
CCN1CCN(CCCn2cnc3c(N4CCN(CC)CC4)ncnc32)CC1,Activity,[1],100%
same,Activity,[2],Non-Toxic
same,Activity,[3],100%
same,Activity,[4],Non-Toxic
same,"remaining at 2 h, 25 µM",[5],95%
same,"Papp A→B at 2 h, 10 µM",[6],3.57 ×10⁻⁶ cm/s
same,Activity,[7],100%
same,Cmax,[8],2600 ng/mL
same,Activity,[9],Active
same,AUC(0-t) at 24 h,[10],36100 ng·h/mL
same,Activity,[11],Non-Toxic
same,Activity,[12],Non-Toxic
same,Activity,[13],Active
same,Activity,[14],Non-Toxic
same,Activity,[15],100%
same,Tmax,[16],2 h
same,hepatic extraction ratio at 100 µM,[17],0.144
same,Activity,[18],Active
same,"solubility at 18 h, 500 µM",[19],200 µg/mL
same,Activity,[20],Non-Toxic
same,Activity,[21],Active
same,Activity,[22],Non-Toxic
same,half-life,[23],4.6 h
same,Activity,[24],100%
same,bioavailability,[25],70.8%
same,Activity,[26],100%
